Legend:
clinical = details: both, human, in vivo
type 2 diabetic patients = details: cited from earlier work
[1] = system: patients with uncontrolled type 2 diabetes mellitus; assay: Random double blind clinical study in patients with uncontrolled type 2 diabetes mellitus, 90 days; assay type: in vivo, human; details: uncontrolled type 2 diabetes patients, final evaluation 90 days, dose by basal glycemia
From the text: Criteria for inclusion were as follows: • 1. […] Age 40 to 65; • 3. Capacity for deglutition; and • 4 Voluntary consent Criteria for exclusion were as follows: • 1. Pregnancy; • 2. Insulin treatment; and • 3. Personal background of systemic diseases such as: • a) Cardiac insufficiency; and • b) Hepatic or chronic hepatopathic insufficiency. • 4 Background of significant chronic complications with type 2 diabetes mellitus: • a) Renal insufficiency; • b) Ischemic cardiopathy; • c) Cerebral vascular disease; and • d) Visceral neuropathy. • 5. Background of short-term terminal diseases, such as: • a) Cancer; and • b) HIV • 6. […] Known intolerance or allergies to sulfonylureas or biguanides. Criteria for exclusion from the therapy, but not from the statistical analysis: • 1. Presence of severe hypoglycemia at the maximum dosages used in the study; • 2. Presence of severe hypoglycemia at the minimum dosages used in the study; • 3. Presence of intolerable undesirable effects with any of the medications used in the study; • 4. Failure to follow the medical treatment indicated; • 5. Failure to attend scheduled visits; • 6. Intercurrent illnesses or accidents that warrant hospitalization; • 7. […] Voluntary withdrawal from the study. The variables studied were as follows: • Dependent variables: • a) Glycemia between meals; • b) Glucosylated hemoglobin; • c) β cell function; • d) Insulin resistance; and • e) Metabolic profile. • Independent variable: • a) Hypoglycemic therapy. • Intervening variables: • a) Age; • b) Sex; • c) Body mass index; and • d) Evolution of diabetes. Clinical measurements and basal measurement of glycemia between meals, glucosylated hemoglobin, total cholesterol, cholesterol of high density lipoproteins, triglycerides, creatinine, uric acid, glutemic-oxaloacetic transaminase, glutemic-pyruvic transaminase, lactic dehydrogenase, alkaline and insulin phosphatase. Random assignment of patients to each group and pharmacological intervention in accordance with concentration of basal glycemia: [table] Clinical evaluation 30 and 60 days after beginning the study, measuring glycemia between meals and lactic dehydroginase. Final clinical evaluations 90 days after the study begins, measuring glycemia between meals, glucosylated hemoglobin, total cholesterol, high density lipoprotein cholesterol, triglyceride, creatinine, uric acid, glutemic-oxaloacetic transaminase, glutemic-pyruvic transaminase, lactic dehydrogenase, alkaline and insulin phosphatase. Undesirable effects were reported on a special record sheet, specifying each of the clinical manifestations considered probable, possible or directly related to the use of the drugs ingested.

SMILES | half-life (clinical) [h] | potency relative to glibenclamide (type 2 diabetic patients; R. Groomis et al., Endocrinology 13:117-121 (2000)) | incidence of severe hypoglycemia versus glibenclamide (type 2 diabetic patients; type 2 diabetic patients, A. Holstein et al. (2000)) | Blood glucose between meals (change) [1] | Glucosylated hemoglobin HbA1c (change) [1] | Post-prandial blood glucose (change) [1]
CCC1=C(C)CN(C(=O)NCCc2ccc(S(=O)(=O)NC(=O)N[C@H]3CC[C@H](C)CC3)cc2)C1=O [glimepiride] | 3.73 | two times higher | lower incidence | +0.68 | +0.25 | +0.99
CN(C)C(=N)N=C(N)N [metformin] |  |  |  | +0.75 | +0.06 | +1.08
